Data on four compounds can be found in ChEMBL document CHEMBL1133700, “Chiral nonsteroidal affinity ligands for the androgen receptor. 1. Bicalutamide analogues bearing electrophilic groups in the B aromatic ring” (J Med Chem, 2000).

In this assay the target is T1, Androgen receptor (Rattus norvegicus, UniProt P15207).
T1 sequence (P15207 whole entry): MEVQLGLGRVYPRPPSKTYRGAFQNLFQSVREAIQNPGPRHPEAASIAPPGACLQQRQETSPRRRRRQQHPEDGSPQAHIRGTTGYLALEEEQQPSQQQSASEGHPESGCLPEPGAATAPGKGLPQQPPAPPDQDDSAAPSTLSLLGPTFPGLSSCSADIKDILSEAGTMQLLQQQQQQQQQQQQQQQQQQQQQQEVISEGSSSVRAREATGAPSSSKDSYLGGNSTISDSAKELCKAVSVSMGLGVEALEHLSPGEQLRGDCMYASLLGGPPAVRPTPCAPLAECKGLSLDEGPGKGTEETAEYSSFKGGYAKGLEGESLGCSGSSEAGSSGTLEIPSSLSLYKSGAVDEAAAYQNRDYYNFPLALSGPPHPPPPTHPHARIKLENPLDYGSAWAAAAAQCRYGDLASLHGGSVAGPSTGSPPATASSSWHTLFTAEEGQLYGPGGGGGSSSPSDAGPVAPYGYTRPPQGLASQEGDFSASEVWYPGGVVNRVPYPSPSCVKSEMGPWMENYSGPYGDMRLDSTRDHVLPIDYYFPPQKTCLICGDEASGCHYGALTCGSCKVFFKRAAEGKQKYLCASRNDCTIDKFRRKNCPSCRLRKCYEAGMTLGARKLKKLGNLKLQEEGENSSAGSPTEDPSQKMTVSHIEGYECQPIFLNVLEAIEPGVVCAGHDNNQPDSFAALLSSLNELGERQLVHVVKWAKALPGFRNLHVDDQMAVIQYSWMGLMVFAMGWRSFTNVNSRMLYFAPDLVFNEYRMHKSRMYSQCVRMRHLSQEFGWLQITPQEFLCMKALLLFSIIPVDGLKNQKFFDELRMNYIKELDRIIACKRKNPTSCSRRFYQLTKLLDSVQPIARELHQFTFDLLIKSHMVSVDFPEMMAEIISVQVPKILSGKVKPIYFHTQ
Briefly: Binding Affinity towards Rat Androgen Receptor was determined using [3H]- mibolerone as radioligand.

`C[C@](O)(CS(=O)(=O)c1cccc(NC(=O)CCl)c1)C(=O)Nc1ccc(C#N)c(C(F)(F)F)c1` had an inhibition constant Ki of 130 nM.
The same measure for `C[C@](O)(CSc1cccc(NC(=O)CBr)c1)C(=O)Nc1ccc(C#N)c(C(F)(F)F)c1`: over 1000 nM; for `C[C@](O)(CSc1cccc(NC(=O)CCl)c1)C(=O)Nc1ccc(C#N)c(C(F)(F)F)c1`: over 1000 nM.
The same measure for `C[C@](O)(CS(=O)(=O)c1ccc(N=C=S)cc1)C(=O)Nc1ccc(C#N)c(C(F)(F)F)c1`: 41 nM.

The term Ki denotes the dissociation constant of the complex between target and ligand, obtained from inhibition or displacement. Lower therefore signals tighter binding.
